Where two headings read alike, the source gives them in different places.
How the values were obtained:
Type in all cases: cell-based
VIPR2 [1] = target: T1, VIPR2 (Homo sapiens, UniProt P41587); experiment: BRET-based VIPR2 activation assay (CAMYEL cAMP sensor, CHO cells, VIP background)
T1 sequence (P41587 24-438): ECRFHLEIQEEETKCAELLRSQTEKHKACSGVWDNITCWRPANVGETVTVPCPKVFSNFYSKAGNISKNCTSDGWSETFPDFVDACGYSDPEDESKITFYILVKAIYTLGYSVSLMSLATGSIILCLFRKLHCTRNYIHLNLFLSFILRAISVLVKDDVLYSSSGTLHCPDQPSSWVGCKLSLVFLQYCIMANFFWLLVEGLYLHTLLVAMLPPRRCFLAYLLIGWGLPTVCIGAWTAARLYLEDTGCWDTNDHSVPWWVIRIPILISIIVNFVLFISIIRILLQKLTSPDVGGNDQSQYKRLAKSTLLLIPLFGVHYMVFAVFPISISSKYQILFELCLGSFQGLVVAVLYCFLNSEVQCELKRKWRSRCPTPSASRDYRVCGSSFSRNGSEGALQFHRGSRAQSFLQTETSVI
Source text: In such a system, a detector cell is used which expresses both the VIPR2 receptor and “CAMYEL,” a YFP-Epac-RLuc8 BRET sensor construct. This construct includes Epac1, a guanine nucleotide exchange factor activated by direct binding of cAMP, fused with an enhanced YFP and Renilla luciferase 8 (Rluc8) allowing BRET upon cAMP-induced conformational changes (Jiang et al., 2007, J Biol Chem. 282:10576-10584). In response to elevated cAMP levels, there is a conformational change in Epac and therefore a change in the proximity of the fused chromophores, Rluc8 and YFP, resulting in measurable energy transfer. Coexpression of this BRET construct with VIPR2, optionally tagged at the N-terminus with a signal peptide and FLAG epitope (SF-VIPR2), for example in HEK293 cells, allows for detection of a VIPR2-specific response to cAMP. BRET readout may be calculated by quantifying the ratio of the light emitted by the acceptor, YFP (λ=525 nm), over the emission from the donor, RLuc8 (λ=485 nm). The proximity of the donor and acceptor, and therefore the BRET ratio, decreases in the presence of cAMP. In non-limiting specific embodiments, a stable cell line may be generated for this assay using the Flp-In T-Rex system in HEK293 cells. This system allows site-specific single copy integration of the gene of interest and control of expression levels using the Tet-repressor site making receptor expression tetracycline-inducible. For example, a CAMYEL and VIPR2 expressing line may be induced with 0.01 μg/ml tetracycline, then, 24 hours later cells may be collected and distributed into 96-well plates. After treatment with candidate inhibitor compound, for example at 5, 1 and 0.5 μM concentrations, cells may be incubated with the light emitting luciferin, coelenterazine H, for 5 min and incubated for 5 min with VIP at increasing concentrations, for example ranging from […] to 10 μM. The fluorescence and luminescence may then be quantified, for example using a PHERAstar (BMG) plate reader. […] Alternatively, analogous experiments may be performed using human cells harvested from a patient having a VIPR2 copy number variation, for example (but not by way of limitation) pluripotent stem cells prepared from such a patient and then transfected with a CAMYEL construct.
Numerous cellular assays were developed that were able to detect VIP responses absent of interference from non-specific vasopressin receptors using this CHO based system. VIPR2 is a Gs coupled receptor. Activation of VIPR2 by VIP leads to both an elevation in cAMP signaling and the recruitment of β-arrestin. A variety of combinations can be transiently transfect into these CHO cells for the assessment of cellular responses to VIP. For the BRET readout CHO cell lines expressing an YFP-Epac-RLuc8 (CAMYEL) BRET sensor were used to detect changes in cAMP. This construct includes Epac1, a guanine nucleotide exchange factor activated by direct binding of cAMP, fused to an enhanced YFP and RLuc8 allowing a change in BRET upon cAMP-induced conformational changes. The key for medium to high throughput screening assays is the use of stable cell lines allowing the continuous assaying of multiple compounds with the ability to generate large numbers of cells for rapid use. In these lines VIPR2 was expressed as one of the stable cell lines assays. This was introduced into the CHO-Flp-IN to allow the generation of isogenic stable cell lines expressing high levels of VIPR2 under control of the CMV promoter. This has been introduced into this line together with the CAMYEL construct previously described. This allows for detection of VIPR2-specific responses to cAMP. EYFP fluorescence and RLuc8 luminescence is quantified in the presence of 5 μM light-emitting luciferin, coelenterazine H, using a PHERAstar (BMG) plate reader. BRET is calculated by quantifying the ratio of the light emitted by the acceptor, YFP (λ=525 nm), over the emission from the donor, RLuc8 (λ=485 nm).
3. […]

VIPR2 [2] = target: T1, VIPR2; experiment: Inhibition of VIP-induced β-arrestin recruitment (% Activity Arrestin); design: expressed in transfected cells; host or cells: HEK293 cells transfected with VIPR2 in pCDNA3.1 (as described); details: Batch 1
Outline: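 Read-out is β-gal fragment complementation (luminescence) between ProLink-hVIPR2 and EA-β-arrestin2 in transiently transfected HEK293 cells. Cells rested overnight, then exposed to inhibitor 2 h at 37 °C before detection reagent (5 min–1 h, room temperature); values are % activity against VIP-driven recruitment.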

VIPR2 [3] = target: T1, VIPR2; experiment: % Activity: inhibition of VIP-induced cAMP elevation and β-arrestin recruitment (Table 2); design: expressed in transfected cells; host or cells: HEK293 cells transfected with VIPR2 in pCDNA3.1 (as described)
Outline: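 Recruitment of β-arrestin measured by β-gal fragment complementation luminescence in HEK293 cells co-expressing VIPR2-ProLink and β-arrestin2-EA after 2 h compound at 37° C. VIP-driven cAMP rise in stable hVIPR2 HEK293 cells measured by HTRF after 30 min with inhibitor and VIP.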

VIPR2 [4] = target: T1, VIPR2; experiment: Inhibition of VIP-induced cAMP elevation (% Activity cAMP); design: expressed in transfected cells; host or cells: HEK293 cells transfected with VIPR2 in pCDNA3.1 (as described); details: Batch 1
Outline: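 HEK293 cells stably transfected with human VIPR2 were incubated with inhibitor and VIP for 30 min, then cAMP was detected by HTRF after at least 1 h at room temperature. The 665/620 nm ratio ×10,000 was calculated.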

[5] = Table 3, read-out: IC50 (from BRET)

IC50 (VIPR2 [1]; [5])	IC50 (VIPR2 [1]; Table 1, read-out: IC50)	IC50 (VIPR2 [1]; Table 4, read-out: IC50)	inhibition at 0.5 µM (VIPR2 [2])	inhibition at 1 µM (VIPR2 [2])	inhibition at 5 µM (VIPR2 [2])	% Activity (VIPR2 [3])	inhibition at 0.5 µM (VIPR2 [4])	inhibition at 1 µM (VIPR2 [4])	inhibition at 5 µM (VIPR2 [4])	SMILES
6.03 µM										O=C(N[C@H]1c2ccccc2C[C@H]1O)[C@H](Cc1ccccc1)C[C@H](O)CNS(=O)(=O)c1ccc(F)cc1 [Compound X105]
2.02 µM	0.28 µM									O=C(N[C@H]1c2ccccc2C[C@H]1O)[C@H](Cc1ccccc1)C[C@H](O)CNS(=O)(=O)c1ccc(Cl)cc1 [Compound X106]
40.6 µM										CC(O)c1ccc(S(=O)(=O)NC[C@@H](O)C[C@@H](Cc2ccccc2)C(=O)N[C@H]2c3ccccc3C[C@H]2O)cc1 (some centres unmarked) [Compound X107]
10 µM										O=C(N[C@H]1c2ccccc2C[C@H]1O)[C@H](Cc1ccccc1)C[C@H](O)CNS(=O)(=O)c1ccc2c(c1)CCC2 [Compound X108]
33.7 µM	0.206 µM									O=C(N[C@H]1c2ccccc2C[C@H]1O)[C@H](Cc1ccccc1)C[C@H](O)CNS(=O)(=O)c1ccc2c(c1)OCCO2 [Compound X109]
3.81 µM	2.16 µM									O=C(N[C@H]1c2ccccc2C[C@H]1O)[C@H](Cc1ccccc1)C[C@H](O)CNS(=O)(=O)c1ccc2c(c1)OCO2 [Compound X110]
45.8 µM	1.13 µM									CCc1ccc(S(=O)(=O)NC[C@@H](O)C[C@@H](Cc2ccccc2)C(=O)N[C@H]2c3ccccc3C[C@H]2O)cc1 [Compound X115]
		76.2 µM								CO[C@@H]1Cc2ccccc2[C@@H]1NC(=O)[C@H](Cc1ccccc1)C[C@H](O)CNS(=O)(=O)c1ccc(C(C)=O)cc1 [Compound X124]
		13.3 µM								CO[C@@H]1Cc2ccccc2[C@@H]1NC(=O)[C@H](Cc1ccccc1)C[C@H](O)CNS(=O)(=O)c1ccc(Cl)cc1 [Compound X126]
		28.2 µM								CO[C@H]1Cc2ccccc2[C@@H]1NC(=O)[C@H](Cc1ccccc1)C[C@H](O)CNS(=O)(=O)c1ccc2c(c1)OCCO2 [Compound X135]
			2.8%	20.3%	31.8%	27.55%	14.1%	10.9%	23.3%	Cc1ccc(S(=O)(=O)NC[C@@H](O)C[C@@H](Cc2ccccc2)C(=O)N[C@H]2c3ccccc3C[C@H]2O)c(C)c1 [N]
			-8.1%	5.7%	-10.3%	2.4%	0.5%	2.3%	15.1%	O=C(NC[C@@H](O)C[C@@H](Cc1ccccc1)C(=O)N[C@H]1c2ccccc2C[C@H]1O)c1cccc(CCl)c1 [O]
			-12%	-3.8%	-0.6%	8.85%	10.9%	13.6%	18.3%	Cc1ccc([N+](=O)[O-])cc1S(=O)(=O)NC[C@@H](O)C[C@@H](Cc1ccccc1)C(=O)N[C@H]1c2ccccc2C[C@H]1O [P]
			-3.8%	6.8%	5.2%	12.75%	17.4%	18.5%	20.3%	O=C(NC[C@@H](O)C[C@@H](Cc1ccccc1)C(=O)N[C@H]1c2ccccc2C[C@H]1O)c1cccc(Br)c1 [Q]
			10.7%	24.8%	21%	22.85%	23%	18.8%	24.7%	O=C(N[C@H]1c2ccccc2C[C@H]1O)[C@H](Cc1ccccc1)C[C@H](O)CNS(=O)(=O)c1ccccc1C(F)(F)F [R]
	1.3 µM					84.52%				O=C(N[C@H]1c2ccccc2C[C@H]1O)[C@H](Cc1ccccc1)C[C@H](O)CNS(=O)(=O)c1ccc([N+](=O)[O-])cc1 [Ref C1, reference compound]
			10.5%	23.2%	32%	30.1%	21.1%	20.4%	28.2%	COc1ccc(S(=O)(=O)NC[C@@H](O)C[C@@H](Cc2ccccc2)C(=O)N[C@H]2c3ccccc3C[C@H]2O)cc1OC [S]
			5.3%	28.3%	52%	40.15%	28.6%	22.3%	28.3%	O=C(N[C@H]1c2ccccc2C[C@H]1O)[C@H](Cc1ccccc1)C[C@H](O)CNS(=O)(=O)c1ccccc1F [T]
